{"source": "patent US10508127B2", "about": "“Conjugated bisphosphonates for the diagnosis and therapy of bone diseases” (SCV GmbH, priority 2014, dated 2019)", "key": {"[1]": {"test": "Ex vivo biodistribution (organ SUV) in healthy Wistar rats 60 min after tail vein injection", "details": "for Bone-to-organ ratio Blood / Bone-to-organ ratio Heart / Bone-to-organ ratio Intestine / Bone-to-organ ratio Kidneys / Bone-to-organ ratio Liver / Bone-to-organ ratio Lung / Bone-to-organ ratio Muscle / Bone-to-organ ratio Spleen: Wistar rats after 60 min; for SUV Blood / SUV Femur / SUV Heart / SUV Intestine / SUV Kidneys / SUV Liver / SUV Lung / SUV Muscle / SUV Spleen: Wistar rats, ex vivo, 60 min after injection, SUV (standard deviation) from five animals", "method": "Under isoflurane anesthesia, 15-18 MBq of the ^68Ga-marked compound or of the ^177Lu-marked compounds, diluted in isotonic saline solution, was applied into the tail vein of healthy Wistar rats (N=5) having a weight between 140 and 220 g. The rats were killed 60 min after injection, organ samples were removed and weighed, and the accumulation of the marked bisphosphonate in the tissue was determined in SUV (standardized uptake value) according to the formula: SUV=(activity per g of tissue)/(injected activity) x body weight."}, "[2]": {"test": "In vivo μPET experiments, pharmacological parameters (2-Compartment Model)", "details": "Wistar rats"}, "[3]": {"test_system": "bone metastases", "test": "First therapeutic application / scintigraphy of [177Lu]DOTA^ZOL in a prostate carcinoma patient with disseminated bone metastases", "format": "in vivo", "method": "FIG. 5: Distribution of [^177Lu]DOTA^ZOL in a patient with disseminated bone metastases: [^177Lu]DOTA^ZOL scintigraphy on a patient with prostate carcinoma 6 hours after injection. In a first therapeutic applications [sic], within two months, the PSA value (which represents an important marker in monitoring the progress of the prostate carcinoma) could be lowered from 478 ng/mL initially to 88 ng/mL after only one treatment with 5.5 GBq [^177Lu]DOTA^ZOL. ^177Lu-DOTAM^ZOL may be used equivalently."}, "[4]": {"test_system": "bone metastases", "test": "PET/CT uptake (SUV max) in a patient with prostate carcinoma and bone metastases", "format": "in vivo", "details": "same patient; DOTA^ZOL PET/CT day n, HBED-PSMA^CC PET/CT day n + 2"}}, "note": "Marks after values point to notes of the source that are not given here."}
{"smiles": "O=C(O)CN1CCN(CC(=O)O)CCN(CC(=O)NCCC(O)(P(=O)(O)O)P(=O)(O)O)CCN(CC(=O)O)CC1.[68Ga+3]", "note": "[[^68Ga]DOTA^PAM]", "values": [{"measurement": "Bone-to-organ ratio Blood", "setting": "[1]", "result": 7.61}, {"measurement": "Bone-to-organ ratio Heart", "setting": "[1]", "result": 19.49}, {"measurement": "Bone-to-organ ratio Intestine", "setting": "[1]", "result": 16.11}, {"measurement": "Bone-to-organ ratio Kidneys", "setting": "[1]", "result": 9.44}, {"measurement": "Bone-to-organ ratio Liver", "setting": "[1]", "result": 10.02}, {"measurement": "Bone-to-organ ratio Lung", "setting": "[1]", "result": 8.61}, {"measurement": "Bone-to-organ ratio Muscle", "setting": "[1]", "result": 47.96}, {"measurement": "Bone-to-organ ratio Spleen", "setting": "[1]", "result": 14.51}, {"measurement": "SUV Blood", "setting": "[1]", "result": "0.60 (0.03) SUV"}, {"measurement": "SUV Femur", "setting": "[1]", "result": "4.53 (0.17) SUV"}, {"measurement": "SUV Heart", "setting": "[1]", "result": "0.23 (0.02) SUV"}, {"measurement": "SUV Intestine", "setting": "[1]", "result": "0.28 (0.12) SUV"}, {"measurement": "SUV Kidneys", "setting": "[1]", "result": "0.48 (0.06) SUV"}, {"measurement": "SUV Liver", "setting": "[1]", "result": "0.43 (0.04) SUV"}, {"measurement": "SUV Lung", "setting": "[1]", "result": "0.53 (0.16) SUV"}, {"measurement": "SUV Muscle", "setting": "[1]", "result": "0.09 (0.02) SUV"}, {"measurement": "SUV Spleen", "setting": "[1]", "result": "0.31 (0.04) SUV"}, {"measurement": "Elimination half-life t1/2(α)", "setting": "[2]", "result": 4.5, "unit": "min"}, {"measurement": "Elimination half-life t1/2(β)", "setting": "[2]", "result": 4.5, "unit": "h"}]}
{"smiles": "O=C(O)CN1CCN(CC(=O)O)CCN(CC(=O)NCCc2cn(CC(O)(P(=O)(O)O)P(=O)(O)O)cn2)CCN(CC(=O)O)CC1.[177Lu+3]", "note": "[[^177Lu]DOTA^ZOL]", "values": [{"measurement": "Selectivity of distribution", "setting": "[3]; first clinical studies, FIG. 5 scintigraphy 6 hours after injection", "result": "high selectivity"}, {"measurement": "PSA value after treatment", "setting": "[3]; prostate carcinoma patient, within two months after only one treatment with 5.5 GBq, initially 478 ng/mL", "result": 88, "unit": "ng/mL"}]}
{"smiles": "O=C(O)CN1CCN(CC(=O)O)CCN(CC(=O)NCCC(P(=O)(O)O)P(=O)(O)O)CCN(CC(=O)O)CC1.[68Ga+3]", "note": "[[^68Ga]BPAPD]", "values": [{"measurement": "Bone-to-organ ratio Blood", "setting": "[1]", "result": 3.73}, {"measurement": "Bone-to-organ ratio Heart", "setting": "[1]", "result": 10.03}, {"measurement": "Bone-to-organ ratio Intestine", "setting": "[1]", "result": 12.35}, {"measurement": "Bone-to-organ ratio Kidneys", "setting": "[1]", "result": 5.73}, {"measurement": "Bone-to-organ ratio Liver", "setting": "[1]", "result": 8.68}, {"measurement": "Bone-to-organ ratio Lung", "setting": "[1]", "result": 7.47}, {"measurement": "Bone-to-organ ratio Muscle", "setting": "[1]", "result": 18.88}, {"measurement": "Bone-to-organ ratio Spleen", "setting": "[1]", "result": 13.96}, {"measurement": "SUV Blood", "setting": "[1]", "result": "0.86 (0.21) SUV"}, {"measurement": "SUV Femur", "setting": "[1]", "result": "3.21 (0.29) SUV"}, {"measurement": "SUV Heart", "setting": "[1]", "result": "0.32 (0.09) SUV"}, {"measurement": "SUV Intestine", "setting": "[1]", "result": "0.26 (0.05) SUV"}, {"measurement": "SUV Kidneys", "setting": "[1]", "result": "0.56 (0.08) SUV"}, {"measurement": "SUV Liver", "setting": "[1]", "result": "0.37 (0.11) SUV"}, {"measurement": "SUV Lung", "setting": "[1]", "result": "0.43 (0.08) SUV"}, {"measurement": "SUV Muscle", "setting": "[1]", "result": "0.17 (0.02) SUV"}, {"measurement": "SUV Spleen", "setting": "[1]", "result": "0.23 (0.08) SUV"}, {"measurement": "Elimination half-life t1/2(α)", "setting": "[2]", "result": 5, "unit": "min"}, {"measurement": "Elimination half-life t1/2(β)", "setting": "[2]", "result": 4, "unit": "h"}]}
{"smiles": "O=C(O)CN1CCN(CC(=O)O)CCN(CC(=O)NCCc2cn(CC(O)(P(=O)(O)O)P(=O)(O)O)cn2)CCN(CC(=O)O)CC1.[68Ga+3]", "note": "[[^68Ga]DOTA^ZOL]", "values": [{"measurement": "Bone-to-organ ratio Blood", "setting": "[1]", "result": 11.47}, {"measurement": "Bone-to-organ ratio Heart", "setting": "[1]", "result": 37.97}, {"measurement": "Bone-to-organ ratio Intestine", "setting": "[1]", "result": 38.67}, {"measurement": "Bone-to-organ ratio Kidneys", "setting": "[1]", "result": 10.22}, {"measurement": "Bone-to-organ ratio Liver", "setting": "[1]", "result": 19.21}, {"measurement": "Bone-to-organ ratio Lung", "setting": "[1]", "result": 12.06}, {"measurement": "Bone-to-organ ratio Muscle", "setting": "[1]", "result": 65.96}, {"measurement": "Bone-to-organ ratio Spleen", "setting": "[1]", "result": 31.71}, {"measurement": "SUV Blood", "setting": "[1]", "result": "0.47 (0.19)^† SUV"}, {"measurement": "SUV Femur", "setting": "[1]", "result": "5.40 (0.62)^†‡ SUV"}, {"measurement": "SUV Heart", "setting": "[1]", "result": "0.14 (0.04)^†‡ SUV"}, {"measurement": "SUV Intestine", "setting": "[1]", "result": "0.14 (0.08)^ SUV"}, {"measurement": "SUV Kidneys", "setting": "[1]", "result": "0.53 (0.04)^ SUV"}, {"measurement": "SUV Liver", "setting": "[1]", "result": "0.28 (0.03)^‡ SUV"}, {"measurement": "SUV Lung", "setting": "[1]", "result": "0.45 (0.11)^ SUV"}, {"measurement": "SUV Muscle", "setting": "[1]", "result": "0.08 (0.02)^† SUV"}, {"measurement": "SUV Spleen", "setting": "[1]", "result": "0.17 (0.02)^‡ SUV"}, {"measurement": "SUV max, bone lesion 8th right rear rib", "setting": "[4]", "result": 7.99, "unit": "SUV max"}, {"measurement": "SUV max, bone lesion C4 vertebral body and hip pedicle", "setting": "[4]", "result": 12.38, "unit": "SUV max"}, {"measurement": "SUV max, bone lesion L2 vertebral body", "setting": "[4]", "result": 68.92, "unit": "SUV max"}, {"measurement": "SUV max, bone lesion L3 vertebral body", "setting": "[4]", "result": 62.96, "unit": "SUV max"}, {"measurement": "SUV max, bone lesion L4 vertebral body", "setting": "[4]", "result": 34.51, "unit": "SUV max"}, {"measurement": "SUV max, bone lesion L5 vertebral body", "setting": "[4]", "result": 21.94, "unit": "SUV max"}, {"measurement": "SUV max, bone lesion Left bones, upper ischium, and pubic bone", "setting": "[4]", "result": 62.32, "unit": "SUV max"}, {"measurement": "SUV max, bone lesion Right acetabulum", "setting": "[4]", "result": 25.39, "unit": "SUV max"}, {"measurement": "SUV max, bone lesion Right ischium", "setting": "[4]", "result": 32.55, "unit": "SUV max"}, {"measurement": "SUV max, bone lesion Sacrum", "setting": "[4]", "result": 17.98, "unit": "SUV max"}, {"measurement": "SUV max, bone lesion T9 vertebral body", "setting": "[4]", "result": 17.08, "unit": "SUV max"}, {"measurement": "SUV max, bone lesion T11 vertebral body", "setting": "[4]", "result": 32.29, "unit": "SUV max"}, {"measurement": "SUV max, soft tissue Bladder", "setting": "[4]", "result": 15.53, "unit": "SUV max"}, {"measurement": "SUV max, soft tissue Left kidney", "setting": "[4]", "result": 4.12, "unit": "SUV max"}, {"measurement": "SUV max, soft tissue Left parotid gland", "setting": "[4]", "result": 1.46, "unit": "SUV max"}, {"measurement": "SUV max, soft tissue Liver", "setting": "[4]", "result": 2.85, "unit": "SUV max"}, {"measurement": "SUV max, soft tissue Right kidney", "setting": "[4]", "result": 9.34, "unit": "SUV max"}, {"measurement": "SUV max, soft tissue Right parotid gland", "setting": "[4]", "result": 1.22, "unit": "SUV max"}, {"measurement": "SUV max, soft tissue Spleen", "setting": "[4]", "result": 4.50, "unit": "SUV max"}, {"measurement": "Elimination half-life t1/2(α)", "setting": "[2]", "result": 5, "unit": "min"}, {"measurement": "Elimination half-life t1/2(β)", "setting": "[2]", "result": 2.3, "unit": "h"}]}
